Test results: the supplement of paper PMC10307832

Tests used:
Test in all cases: relative viability (nuclei count vs DMSO), 5 days (fraction); higher = more cells survive
[1] = test system: SK-MES-1
Outline: (§1)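 Cells from lung cancer lines were seeded into 1536-well plates and, one day later, dosed by pin tool. Treatments were either a single drug or a fixed dose of an anchor drug with five library-drug doses (not always all listed) in √10 steps. After 5 days, nuclei were stained in a one-step fixation (final 0.05% Triton X-100, 1% formaldehyde, 1 ug/ml Hoechst) and counted on 4× images, and relative viability is the treated-to-vehicle nuclei ratio, as the median of duplicate plates.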

[2] = test system: HCC-366
Outline: as §1

[3] = test system: NCI-H1734
Outline: as §1

[4] = test system: NCI-H1437
Outline: as §1

[5] = test system: NCI-H1355
Outline: as §1

[6] = test system: NCI-H1792
Outline: as §1

[7] = test system: SK-LU-1
Outline: as §1

[8] = test system: HCC-827
Outline: as §1

[9] = test system: NCI-H647
Outline: as §1

[10] = test system: NCI-H2009
Outline: as §1

[11] = test system: NCI-H2087
Outline: as §1

[12] = test system: HARA
Outline: as §1

[13] = test system: EKVX
Outline: as §1

[14] = test system: NCI-H1395
Outline: as §1

[15] = test system: NCI-H2170
Outline: as §1

[16] = test system: NCI-H1993
Outline: as §1

[17] = test system: NCI-H2342
Outline: as §1

[18] = test system: NCI-H661
Outline: as §1

[19] = test system: BEN
Outline: as §1

[20] = test system: LOU-NH91
Outline: as §1

[21] = test system: NCI-H2405
Outline: as §1

[22] = test system: NCI-H522
Outline: as §1

Compound: CC(=O)O[C@@]12CO[C@@H]1C[C@H](O)[C@@]1(C)C(=O)[C@H](O)C3=C(C)[C@@H](OC(=O)[C@H](O)[C@@H](NC(=O)OC(C)(C)C)c4ccccc4)C[C@@](O)([C@@H](OC(=O)c4ccccc4)[C@H]21)C3(C)C [Docetaxel] + N=C(N)NC(=N)NCCc1ccccc1 [Phenformin] (partner 250 µM)
- relative viability ([1]; first compound 0.0002 µM): 0.664
- relative viability ([1]; first compound 0.000632 µM): 0.667
- relative viability ([1]; first compound 0.002 µM): 0.364
- relative viability ([1]; first compound 0.006325 µM): 0.273
- relative viability ([1]; first compound 0.02 µM): 0.179
- relative viability ([2]; first compound 0.0002 µM): 0.599
- relative viability ([2]; first compound 0.000632 µM): 0.253
- relative viability ([2]; first compound 0.002 µM): 0.147
- relative viability ([2]; first compound 0.006325 µM): 0.0428
- relative viability ([2]; first compound 0.02 µM): 0.0275
- relative viability ([3]; first compound 0.0002 µM): 0.296
- relative viability ([3]; first compound 0.000632 µM): 0.338
- relative viability ([3]; first compound 0.002 µM): 0.232
- relative viability ([3]; first compound 0.006325 µM): 0.221
- relative viability ([3]; first compound 0.02 µM): 0.168
- relative viability ([4]; first compound 0.0002 µM): 0.3
- relative viability ([4]; first compound 0.000632 µM): 0.294
- relative viability ([4]; first compound 0.002 µM): 0.23
- relative viability ([4]; first compound 0.006325 µM): 0.154
- relative viability ([4]; first compound 0.02 µM): 0.123
- relative viability ([5]; first compound 0.0002 µM): 0.463
- relative viability ([5]; first compound 0.000632 µM): 0.402
- relative viability ([5]; first compound 0.002 µM): 0.385
- relative viability ([5]; first compound 0.006325 µM): 0.287
- relative viability ([5]; first compound 0.02 µM): 0.217
- relative viability ([6]; first compound 0.0002 µM): 0.221
- relative viability ([6]; first compound 0.000632 µM): 0.23
- relative viability ([6]; first compound 0.002 µM): 0.0848
- relative viability ([6]; first compound 0.006325 µM): 0.126
- relative viability ([6]; first compound 0.02 µM): 0.0575
- relative viability ([7]; first compound 0.0002 µM): 0.48
- relative viability ([7]; first compound 0.000632 µM): 0.285
- relative viability ([7]; first compound 0.002 µM): 0.239
- relative viability ([7]; first compound 0.006325 µM): 0.183
- relative viability ([7]; first compound 0.02 µM): 0.115
- relative viability ([8]; first compound 0.0002 µM): 0.392
- relative viability ([8]; first compound 0.000632 µM): 0.426
- relative viability ([8]; first compound 0.002 µM): 0.357
- relative viability ([8]; first compound 0.006325 µM): 0.247
- relative viability ([8]; first compound 0.02 µM): 0.213
- relative viability ([9]; first compound 0.0002 µM): 0.329
- relative viability ([9]; first compound 0.000632 µM): 0.322
- relative viability ([9]; first compound 0.002 µM): 0.133
- relative viability ([9]; first compound 0.006325 µM): 0.106
- relative viability ([9]; first compound 0.02 µM): 0.0836
- relative viability ([10]; first compound 0.0002 µM): 0.483
- relative viability ([10]; first compound 0.000632 µM): 0.526
- relative viability ([10]; first compound 0.002 µM): 0.463
- relative viability ([10]; first compound 0.006325 µM): 0.321
- relative viability ([10]; first compound 0.02 µM): 0.202
- relative viability ([11]; first compound 0.0002 µM): 0.44
- relative viability ([11]; first compound 0.000632 µM): 0.38
- relative viability ([11]; first compound 0.002 µM): 0.152
- relative viability ([11]; first compound 0.006325 µM): 0.159
- relative viability ([11]; first compound 0.02 µM): 0.0907
- relative viability ([12]; first compound 0.0002 µM): 0.387
- relative viability ([12]; first compound 0.000632 µM): 0.19
- relative viability ([12]; first compound 0.002 µM): 0.0801
- relative viability ([12]; first compound 0.006325 µM): 0.0508
- relative viability ([12]; first compound 0.02 µM): 0.0419
- relative viability ([13]; first compound 0.0002 µM): 0.264
- relative viability ([13]; first compound 0.000632 µM): 0.218
- relative viability ([13]; first compound 0.002 µM): 0.191
- relative viability ([13]; first compound 0.006325 µM): 0.149
- relative viability ([13]; first compound 0.02 µM): 0.137
- relative viability ([14]; first compound 0.0002 µM): 0.434
- relative viability ([14]; first compound 0.000632 µM): 0.45
- relative viability ([14]; first compound 0.002 µM): 0.442
- relative viability ([14]; first compound 0.006325 µM): 0.283
- relative viability ([14]; first compound 0.02 µM): 0.334
- relative viability ([15]; first compound 0.0002 µM): 0.405
- relative viability ([15]; first compound 0.000632 µM): 0.428
- relative viability ([15]; first compound 0.002 µM): 0.267
- relative viability ([15]; first compound 0.006325 µM): 0.217
- relative viability ([15]; first compound 0.02 µM): 0.174
- relative viability ([16]; first compound 0.0002 µM): 0.559
- relative viability ([16]; first compound 0.000632 µM): 0.604
- relative viability ([16]; first compound 0.002 µM): 0.556
- relative viability ([16]; first compound 0.006325 µM): 0.489
- relative viability ([16]; first compound 0.02 µM): 0.439
- relative viability ([17]; first compound 0.0002 µM): 0.478
- relative viability ([17]; first compound 0.000632 µM): 0.596
- relative viability ([17]; first compound 0.002 µM): 0.625
- relative viability ([17]; first compound 0.006325 µM): 0.4
- relative viability ([17]; first compound 0.02 µM): 0.343
- relative viability ([18]; first compound 0.0002 µM): 0.334
- relative viability ([18]; first compound 0.000632 µM): 0.32
- relative viability ([18]; first compound 0.002 µM): 0.317
- relative viability ([18]; first compound 0.006325 µM): 0.267
- relative viability ([18]; first compound 0.02 µM): 0.221
- relative viability ([19]; first compound 0.0002 µM): 0.248
- relative viability ([19]; first compound 0.000632 µM): 0.253
- relative viability ([19]; first compound 0.002 µM): 0.307
- relative viability ([19]; first compound 0.006325 µM): 0.215
- relative viability ([19]; first compound 0.02 µM): 0.194
- relative viability ([20]; first compound 0.0002 µM): 0.661
- relative viability ([20]; first compound 0.000632 µM): 0.625
- relative viability ([20]; first compound 0.002 µM): 0.41
- relative viability ([20]; first compound 0.006325 µM): 0.317
- relative viability ([20]; first compound 0.02 µM): 0.269
- relative viability ([21]; first compound 0.0002 µM): 0.393
- relative viability ([21]; first compound 0.000632 µM): 0.419
- relative viability ([21]; first compound 0.002 µM): 0.315
- relative viability ([21]; first compound 0.006325 µM): 0.297
- relative viability ([21]; first compound 0.02 µM): 0.26
- relative viability ([22]; first compound 0.0002 µM): 0.611
- relative viability ([22]; first compound 0.000632 µM): 0.433
- relative viability ([22]; first compound 0.002 µM): 0.527
- relative viability ([22]; first compound 0.006325 µM): 0.55
- relative viability ([22]; first compound 0.02 µM): 0.471
